# According to BindingDB's records for doi:10.1016/j.ejmech.2014.06.016 (Ocean University of China, 2014):
# Test: Inhibition of p-glycoprotein in human MDA435/LCC6MDR cells assessed as concentration required to reduce taxol IC50 by half after 5 days by MTS assay
row,Structure (SMILES),EC50 [nM]
1,CCN(CC)c1ccc(Cc2c(Cc3ccc(OC)c(OC)c3)nc(NC(=O)c3cc(OC)c(OC)c(OC)c3)n2C)cc1,213
2,CCN(CC)c1ccc(Cc2c(Cc3ccc(OC)c(OC)c3)nc(N(C(=O)/C=C/c3cc(OC)c(OC)c(OC)c3)C(=O)/C=C/c3cc(OC)c(OC)c(OC)c3)n2C)cc1,211
